As a reminder, the inhibition is the share of the control response that was lost under treatment.

Bounds are passed on as bounds.

Results on 15 molecules are retold here after patent US9120812B2, “Pyrimidooxazocine derivatives as mTOR-inhibitors” (SANOFI, priority 2012, dated 2015).

The target in test [1] is mTOR (human recombinant aa mTOR 1360-2549) (Homo sapiens (Human), UniProt P42345). As to the kind of experiment: mTOR enzymatic test by TR-FRET (phosphorylation of GFP-4EBP1). The test is classed as biochemical. On the procedure: Model 1: mTOR Enzymatic Test by TR-FRET (Time-resolved Fluorescence Resonance Energy Transfer).
Chain of mTOR (human recombinant aa mTOR 1360-2549) (P42345 1360-2549): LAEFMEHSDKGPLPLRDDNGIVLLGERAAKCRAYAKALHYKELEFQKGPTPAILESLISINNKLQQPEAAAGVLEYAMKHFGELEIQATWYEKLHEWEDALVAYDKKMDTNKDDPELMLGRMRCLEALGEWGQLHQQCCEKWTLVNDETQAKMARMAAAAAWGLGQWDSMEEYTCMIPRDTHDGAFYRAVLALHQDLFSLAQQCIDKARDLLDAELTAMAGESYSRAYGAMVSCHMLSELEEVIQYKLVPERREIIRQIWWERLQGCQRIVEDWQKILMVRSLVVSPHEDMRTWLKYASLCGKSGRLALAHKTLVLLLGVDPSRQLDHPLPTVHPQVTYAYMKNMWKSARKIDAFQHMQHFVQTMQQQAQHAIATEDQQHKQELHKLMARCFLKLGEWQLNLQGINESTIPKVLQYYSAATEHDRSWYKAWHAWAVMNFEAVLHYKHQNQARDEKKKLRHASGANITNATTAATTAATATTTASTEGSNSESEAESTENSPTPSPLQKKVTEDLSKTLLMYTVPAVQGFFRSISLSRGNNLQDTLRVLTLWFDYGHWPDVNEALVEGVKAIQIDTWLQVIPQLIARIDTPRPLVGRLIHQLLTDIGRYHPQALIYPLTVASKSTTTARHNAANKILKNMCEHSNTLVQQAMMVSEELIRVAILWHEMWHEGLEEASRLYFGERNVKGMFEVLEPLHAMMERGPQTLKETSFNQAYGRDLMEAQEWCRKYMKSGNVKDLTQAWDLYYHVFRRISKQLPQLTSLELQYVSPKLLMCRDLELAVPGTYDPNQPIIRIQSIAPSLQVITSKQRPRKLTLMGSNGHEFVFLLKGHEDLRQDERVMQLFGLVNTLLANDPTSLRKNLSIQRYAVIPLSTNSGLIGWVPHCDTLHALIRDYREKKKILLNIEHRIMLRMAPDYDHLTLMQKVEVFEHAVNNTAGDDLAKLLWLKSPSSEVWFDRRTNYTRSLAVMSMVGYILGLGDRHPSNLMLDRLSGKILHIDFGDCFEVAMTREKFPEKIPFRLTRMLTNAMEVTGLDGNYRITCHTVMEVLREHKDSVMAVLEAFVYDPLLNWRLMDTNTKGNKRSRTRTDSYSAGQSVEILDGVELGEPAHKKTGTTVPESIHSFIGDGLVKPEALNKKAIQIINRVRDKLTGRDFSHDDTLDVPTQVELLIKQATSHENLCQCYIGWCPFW
The test detects the phosphorylation of the substrate GFP-4EBP1 using a terbium-labelled antibody that is specific for the phospho-Thr46 epitope. Binding of the Tb-antibody to the phosphorylated GFP peptide allows the transfer of energy from Tb, excited at 340 nm, to GFP with an increase in the fluorescence emission of the GFP at 520 nm. […] The mixture is incubated for 30 minutes at room temperature. 10 μl of solution are taken up and the reaction is quenched by adding 10 μl of Tb-antibody solution (Invitrogen PV4757)/EDTA (2 nM Tb-Ac and 10 mM EDTA final). After 60 minutes at room temperature, the fluorescence at 490 nm, from the Tb emission, and at 520 nm, from the GFP emission, is measured in a BMG PHERAstar reader equipped with a Lanthascreen™ filter (excitation at 340 nm, emission at 490 and 520 nm). The results are given in the form of the 520/490 ratio.

In test [2] the test system is Akt-pS473 in U87MG cells. The conditions noted are these: Homo sapiens, U-87 MG; for IC50: read-out: U87 Akt-pS473 % Inhibition or IC50, nM (IC50), U87MG cells.
Method: Model 3: Cellular Test of Phosphorylation of the Epitope S473 of the Akt Protein on the U87MG Line Via an ELISA Test
An electrochemiluminescence signal is generated by a ruthenium-labelled anti-rabbit antibody.
After culturing for 16-20 hours (the cells are at 100% of confluence) at 37° C. under 5% CO2, 1 μl of the chemical compounds in 100% DMSO (1% DMSO final concentration on the cells) is added. The cells are incubated with the compounds for 3 hours at 37° C. under 5% CO2.
The free sites are blocked with 150 μl/well of a buffer of 50 mM Tris pH 7.5, 0.15 M NaCl, 0.02% Tween 20, 3% BSA with stirring at 450 rpm for 1 hour at room temperature, followed by a step of washing with 3×300 μl of a buffer of 50 mM Tris pH 7.5, 0.15 M NaCl, 0.02% Tween 20.
15 μl of cell lysate are mixed with 15 μl of a 50 mM buffer of Tris pH 7.5, 0.15 M NaCl, 0.02% Tween 20, 1% BSA in a precoated ELISA plate (see above), and incubated for 1 hour at room temperature with stirring, followed by a step of washing with 3×300 μl of a buffer of 50 mM Tris pH 7.5, 0.15 M NaCl, 0.02% Tween 20. The pS473 epitope of Akt is detected with a rabbit polyclonal antibody (Cell Signaling, SC9271), diluted 100-fold in 50 mM Tris pH 7.5, 0.15 M NaCl, 0.02% Tween 20, 1% BSA, 25 μl/well (incubation for 1 hour at room temperature with stirring at 450 rpm).
After washing (see above), revelation is performed with a ruthenium-labelled anti-rabbit antibody (MSD R32AB1), diluted 3000-fold in a 50 mM buffer of Tris pH 7.5, 0.15 M NaCl, 0.02% Tween 20, 1% BSA, 25 μl/well, followed by incubation for 1 hour at room temperature with stirring at 450 rpm, and the plates are covered with aluminium.
After a further washing step, the plates are emptied and 150 μl of MSD Read Buffer T diluted fourfold with water are added. The electrochemiluminescence is measured on the MSD Sector Imager 6000.
Test [3] has as its system U87MG tumour cells. As to the kind of experiment: Test of in vitro proliferation of U87MG tumour cells. The class given is cell-based. The conditions noted are these: Homo sapiens, U-87 MG, 72 h, U87MG cells, 72 hours; read-out: U87 Cell Proliferation IC50. On the procedure:
Model 4: Test of in vitro Proliferation of U87MG Tumour Cells.
The cell growth is determined with the reagent CellTiter 96 AQueous One Solution Cell Proliferation Assay from Promega (Cat. No. G3581).

The target of test [4] is PI3Kα (p110α/p85α) (Homo sapiens (Human), UniProt P42336). As to the kind of experiment: PI3Kα enzymatic test by measuring the consumption of ATP. The class given is biochemical. On the procedure: Model 2: PI3Kα Enzymatic Test by Measuring the Consumption of ATP.
Chain of PI3Kα (p110α/p85α) (P42336 whole entry): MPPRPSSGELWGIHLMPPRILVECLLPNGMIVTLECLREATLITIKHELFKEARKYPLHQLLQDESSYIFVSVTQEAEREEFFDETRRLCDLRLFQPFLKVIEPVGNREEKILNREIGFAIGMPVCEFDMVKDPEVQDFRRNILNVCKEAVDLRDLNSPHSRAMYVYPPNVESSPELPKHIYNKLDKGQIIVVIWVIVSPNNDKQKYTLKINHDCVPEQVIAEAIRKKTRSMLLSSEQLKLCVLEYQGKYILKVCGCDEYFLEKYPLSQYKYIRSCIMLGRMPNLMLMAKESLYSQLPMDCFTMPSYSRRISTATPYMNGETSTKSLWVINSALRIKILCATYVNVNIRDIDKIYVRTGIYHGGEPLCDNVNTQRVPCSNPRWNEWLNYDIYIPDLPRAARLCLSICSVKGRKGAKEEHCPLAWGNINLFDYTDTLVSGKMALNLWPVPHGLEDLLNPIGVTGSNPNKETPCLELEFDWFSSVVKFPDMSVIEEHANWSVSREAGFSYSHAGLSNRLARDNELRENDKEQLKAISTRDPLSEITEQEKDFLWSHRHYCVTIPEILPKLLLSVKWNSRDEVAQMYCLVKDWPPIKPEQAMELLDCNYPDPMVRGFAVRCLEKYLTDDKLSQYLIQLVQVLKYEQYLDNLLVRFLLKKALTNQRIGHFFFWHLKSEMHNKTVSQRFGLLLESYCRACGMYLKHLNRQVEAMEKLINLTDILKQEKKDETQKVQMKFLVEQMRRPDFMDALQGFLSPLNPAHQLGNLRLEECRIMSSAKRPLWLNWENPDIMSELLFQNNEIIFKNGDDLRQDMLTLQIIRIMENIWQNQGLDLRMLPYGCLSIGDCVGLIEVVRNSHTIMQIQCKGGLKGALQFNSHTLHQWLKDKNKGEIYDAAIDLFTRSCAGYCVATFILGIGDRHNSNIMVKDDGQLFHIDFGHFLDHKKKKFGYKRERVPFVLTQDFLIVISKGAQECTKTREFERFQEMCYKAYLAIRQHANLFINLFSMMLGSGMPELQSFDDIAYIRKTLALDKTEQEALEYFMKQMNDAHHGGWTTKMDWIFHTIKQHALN
Chain of PI3Kα (p110α/p85α) (P27986 whole entry partner): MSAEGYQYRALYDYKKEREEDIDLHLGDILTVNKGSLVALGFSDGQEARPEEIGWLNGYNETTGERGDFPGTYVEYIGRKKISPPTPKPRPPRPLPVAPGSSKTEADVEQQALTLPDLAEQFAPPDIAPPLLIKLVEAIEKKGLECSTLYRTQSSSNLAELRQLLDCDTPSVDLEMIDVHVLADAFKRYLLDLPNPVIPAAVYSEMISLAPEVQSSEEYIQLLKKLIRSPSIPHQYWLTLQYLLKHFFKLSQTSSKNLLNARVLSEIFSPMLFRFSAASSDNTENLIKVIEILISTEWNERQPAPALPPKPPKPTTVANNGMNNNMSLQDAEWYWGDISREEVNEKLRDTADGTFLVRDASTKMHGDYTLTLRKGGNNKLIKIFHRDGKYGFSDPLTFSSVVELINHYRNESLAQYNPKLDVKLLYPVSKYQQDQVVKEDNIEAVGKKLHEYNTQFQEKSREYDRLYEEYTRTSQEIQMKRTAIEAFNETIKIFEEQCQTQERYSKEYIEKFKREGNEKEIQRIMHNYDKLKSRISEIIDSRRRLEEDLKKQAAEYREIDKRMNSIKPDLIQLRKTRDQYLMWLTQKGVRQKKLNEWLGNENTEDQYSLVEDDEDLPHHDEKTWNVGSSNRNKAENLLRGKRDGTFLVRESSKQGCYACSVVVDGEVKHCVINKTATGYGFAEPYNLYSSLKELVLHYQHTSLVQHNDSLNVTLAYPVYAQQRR
The test uses a lucifeurerin/luciferase system to measure the concentration of ATP and its consumption during the enzymatic reaction. The test is performed in 96-well format (Corning/Costar 96 black flat-bottomed half-wells plate, ref. 3694) in a total volume of 30 μl.
To 1 μl of inhibitor in 100% DMSO are added (final concentrations) 50 μM of the substrate PIP2 ((L-α-phosphatidyl-D-myoinositol 4,5-bisphosphate, Echelon 117P-4516-0500), 2 μM of ATP and 1.7 μg/ml of PI3Kα, (p110α/p85α, Invitrogen PV4788) in a buffer of Tris/HCl 50 mM pH 7.5, EGTA 1 mM, MgCl2 10 mM, Chaps 0.03%, 1 mM DTT). After 90 minutes, the reaction is quenched by adding 20 μl/well of KinaseGlo reagent (Promega V6713). After 10 minutes in the dark, the luminescence is read on the PHERAStar microplate reader (reading at 0.8 sec/well).
The IC50 values are determined by the preparation of successive threefold dilutions on at least a scale of 10 000.

On to `CCN1CC(C)(C)Oc2nc(N3CC4CCC(C3)O4)nc(-c3ccc(NC(=O)NCC(C)(C)O)c(F)c3)c2C1=O` [Example 24, 1-{4-[6-ethyl-8,8-dimethyl-2-(8-oxa-3-azabicyclo[3.2.1]oct-3-yl)-5-oxo-5,6,7,8-tetrahydro-9-oxa-1,3,6-triazabenzocyclohepten-4-yl]-2-fluorophenyl}-3-(2-hydroxy-2-methylpropyl)urea], for which the values for the IC50 in test [1], in test [2] and in test [3] were 1070 nM, above 1000 nM and above 10 µM, respectively.
Consider `CCN1CC(C)(C)Oc2nc(N3CC4CCC(C3)O4)nc(-c3ccc(NC(=O)N[C@H](C)CO)c(F)c3)c2C1=O` [Example 27, 1-{4-[6-ethyl-8,8-dimethyl-2-(8-oxa-3-azabicyclo[3.2.1]oct-3-yl)-5-oxo-5,6,7,8-tetrahydro-9-oxa-1,3,6-triazabenzocyclohepten-4-yl]-2-fluorophenyl}-3-((R)-2-hydroxy-1-methylethyl)urea], for which the values for the IC50 in test [1], in test [2] and in test [3] were 394 nM, above 1000 nM and 9.15 µM, respectively.
With `CCN1CC(C)(C)Oc2nc(N3CC4CCC(C3)O4)nc(-c3ccc(NC(=O)N[C@@H](C)CO)c(F)c3)c2C1=O` [Example 57, 1-{4-[6-Ethyl-8,8-dimethyl-2-(8-oxa-3-azabicyclo[3.2.1]oct-3-yl)-5-oxo-5,6,7,8-tetrahydro-9-oxa-1,3,6-triazabenzocyclohepten-4-yl]-2-fluorophenyl}-3-((S)-2-hydroxy-1-methylethyl)urea], the values for the IC50 in test [2] and in test [3] were above 1000 nM and 7.58 µM, respectively.
Take `Cc1cc(NC(=O)Nc2ccc(-c3nc(N4CC5CCC(C4)O5)nc4c3C(=O)N(C)CC(C)(C)O4)cc2F)ccn1` [Example 60, 1-{2-Fluoro-4-[6,8,8-trimethyl-2-(8-oxa-3-azabicyclo[3.2.1]oct-3-yl)-5-oxo-5,6,7,8-tetrahydro-9-oxa-1,3,6-triazabenzocyclohepten-4-yl]phenyl}-3-(2-methylpyridin-4-yl)urea]: the IC50 stood at 58 nM in test [1], 17 nM in test [2] and 0.046 µM in test [3].
On to `CCN1CC(C)(C)Oc2nc(N3CC4CCC(C3)O4)nc(-c3ccc(NC(=O)O[C@@H](C)CO)c(F)c3)c2C1=O` [Example 61, {4-[6-Ethyl-8,8-dimethyl-2-(8-oxa-3-azabicyclo[3.2.1]oct-3-yl)-5-oxo-5,6,7,8-tetrahydro-9-oxa-1,3,6-triazabenzocyclohepten-4-yl]-2-fluorophenyl}carbamic acid (S)-2-hydroxy-1-methylethyl ester], for which the IC50 in test [1] was 993 nM; in test [2], above 1000 nM; in test [3] it was 4.67 µM.
With `CCN1CC(C)(C)Oc2nc(N3CC4CCC(C3)O4)nc(-c3ccc(NC(=O)Nc4cc(C)nc(C)n4)c(F)c3)c2C1=O` [Example 90, 1-(2,6-Dimethylpyrimidin-4-yl)-3-{4-[6-ethyl-8,8-dimethyl-2-(8-oxa-3-azabicyclo[3.2.1]oct-3-yl)-5-oxo-5,6,7,8-tetrahydro-9-oxa-1,3,6-triazabenzocyclohepten-4-yl]-2-fluorophenyl}urea], the IC50 in test [1] came to 450 nM; in test [3] it was 2.9 µM. For the same molecule, the inhibition at 1 µM in test [2] (read-out: U87 Akt-pS473 % Inhibition) was 64%.
Take `CCN1CC(C)(C)Oc2nc(N3CC4CCC(C3)O4)nc(-c3ccc(NC(=O)Nc4ccnn4C)cc3)c2C1=O` [Example 115, 1-{4-[6-Ethyl-8,8-dimethyl-2-(8-oxa-3-azabicyclo[3.2.1]oct-3-yl)-5-oxo-5,6,7,8-tetrahydro-9-oxa-1,3,6-triazabenzocyclohepten-4-yl]phenyl}-3-(2-methyl-2H-pyrazol-3-yl)urea]: the “PI3Ka IC50” value in test [4] is above 10 µM. Further, the results for the IC50 in test [1] and in test [3] were 147 nM and 5 µM, respectively.
Consider `CCN1CC(C)(C)Oc2nc(N3CC4CCC(C3)O4)nc(-c3ccc(NC(=O)Nc4ccn(C)n4)cc3)c2C1=O` [Example 122, 1-{4-[6-Ethyl-8,8-dimethyl-2-(8-oxa-3-azabicyclo[3.2.1]oct-3-yl)-5-oxo-5,6,7,8-tetrahydro-9-oxa-1,3,6-triazabenzocyclohepten-4-yl]phenyl}-3-(1-methyl-1H-pyrazol-3-yl)urea], for which the IC50 in test [2] is 140 nM; in test [3] it was 0.34 µM.
In the same order, the values of `CCN1CC(C)(C)Oc2nc(N3CC4CCC(C3)O4)nc(-c3ccc(NC(=O)Nc4cnccn4)cc3)c2C1=O` [Example 125, 1-{4-[6-Ethyl-8,8-dimethyl-2-(8-oxa-3-azabicyclo[3.2.1]oct-3-yl)-5-oxo-5,6,7,8-tetrahydro-9-oxa-1,3,6-triazabenzocyclohepten-4-yl]phenyl}-3-pyrazin-2-ylurea] are 86 nM and 0.26 µM.
For the molecule `CCN1CC(C)(C)Oc2nc(N3CC4CCC(C3)O4)nc(-c3ccc(NC(=O)NCC4CCCO4)c(F)c3)c2C1=O` (centres unmarked) [Example 128, 1-{4-[6-Ethyl-8,8-dimethyl-2-(8-oxa-3-azabicyclo[3.2.1]oct-3-yl)-5-oxo-5,6,7,8-tetrahydro-9-oxa-1,3,6-triazabenzocyclohepten-4-yl]-2-fluorophenyl}-3-(tetrahydrofuran-2-ylmethyl)urea], in test [4], the “PI3Ka IC50” value was above 10 µM. Also, the IC50 was 3480 nM in test [1] and above 10 µM in test [3].
Consider `CCN1CC(C)(C)Oc2nc(N3CC4CCC(C3)O4)nc(-c3ccc(NC(=O)Nc4cccc(OC)n4)c(F)c3)c2C1=O` [Example 142, 1-{4-[6-Ethyl-8,8-dimethyl-2-(8-oxa-3-azabicyclo[3.2.1]oct-3-yl)-5-oxo-5,6,7,8-tetrahydro-9-oxa-1,3,6-triazabenzocyclohepten-4-yl]-2-fluorophenyl}-3-(6-methoxypyridin-2-yl)urea], for which, in test [4], the “PI3Ka IC50” value was above 10 µM. For the same molecule, the IC50 in test [1] is 495 nM; in test [3], 3.1 µM.
Turning to `CCN1CC(C)(C)Oc2nc(N3CC4CCC(C3)O4)nc(-c3ccc(NC(=O)NCc4ccc(OC)nc4)c(F)c3)c2C1=O` [Example 145, 1-{4-[6-Ethyl-8,8-dimethyl-2-(8-oxa-3-azabicyclo[3.2.1]oct-3-yl)-5-oxo-5,6,7,8-tetrahydro-9-oxa-1,3,6-triazabenzocyclohepten-4-yl]-2-fluorophenyl}-3-(6-methoxypyridin-3-ylmethyl)urea], the “PI3Ka IC50” value in test [4] is above 10 µM. Also, the IC50 in test [1] is 2980 nM; in test [3] it was above 10 µM.
In the same order, the values of `CCN1CC(C)(C)Oc2nc(N3CC4CCC(C3)O4)nc(-c3ccc(NC(=O)Nc4ccc(OC)nc4)c(C)c3)c2C1=O` [Example 175, 1-{4-[6-Ethyl-8,8-dimethyl-2-(8-oxa-3-azabicyclo[3.2.1]oct-3-yl)-5-oxo-5,6,7,8-tetrahydro-9-oxa-1,3,6-triazabenzocyclohepten-4-yl]-2-methylphenyl}-3-(6-methoxypyridin-3-yl)urea] are above 10 µM, 585 nM and 3.05 µM.
In the case of `COCCN1CC(C)(C)Oc2nc(N3CCOC[C@@H]3C)nc(-c3ccc(NC(=O)Nc4cccc(OC(F)F)c4)cc3)c2C1=O` [Example 216, 1-(3-Difluoromethoxyphenyl)-3-{4-[6-(2-methoxyethyl)-8,8-dimethyl-2-((S)-3-methylmorpholin-4-yl)-5-oxo-5,6,7,8-tetrahydro-9-oxa-1,3,6-triazabenzocyclohepten-4-yl]phenyl}urea], in test [4], the “PI3Ka IC50” value came out at 1.83 µM. Also, the IC50 in test [1] came out at 125 nM; in test [3] it was 0.514 µM.
For `CCN1CC(C)(C)Oc2nc(N3CC4CCC(C3)O4)nc(-c3ccc(NC(=O)Nc4ccnc(N5CCC(F)(F)CC5)c4)c(F)c3)c2C1=O` [Example 261, 1-(4,4-Difluoro-3,4,5,6-tetrahydro-2H-[1,2′]bipyridinyl-4′-yl)-3-{4-[6-ethyl-8,8-dimethyl-2-(8-oxa-3-azabicyclo[3.2.1]oct-3-yl)-5-oxo-5,6,7,8-tetrahydro-9-oxa-1,3,6-triazabenzocyclohepten-4-yl]-2-fluorophenyl}urea], the results for the IC50 in test [2] and in test [3] were 20 nM and 0.16 µM, respectively.
